Reference: EP2181998B1, “New benzothiazinone derivative and its use as antibacterial agent” (priority 2006, dated 2007)
Converted amounts (≈) assume the structure as drawn.

Experiments:
[1] = system: Mycobacterium tuberculosis clinical isolate 6341; format: cell-based
M. vaccae IMET 10 10670 = format: cell-based; settings: for MIC: Mycolicibacterium vaccae, IMET1010670, read-out: MIC M.vaccae
[2] = system: Mycobacterium tuberculosis H37Rv and clinical isolates 6341 and 6374; test: MIC and MBC, classical method, over several strains; format: cell-based; settings: for MBC: read-out: MBC (µg/mL) mean; for MIC: read-out: MIC (µg/mL) mean
in vivo = settings: mouse
[3] = Toxicity after per os administration; settings: mice
[4] = system: Mycobacterium smegmatis SG 987; format: cell-based; settings: Mycolicibacterium smegmatis, SG987; read-out: MIC M. smegmatis
[5] = system: Mycobacterium tuberculosis H37Rv; test: Murine TB model (experimental hematogenously disseminated tuberculosis); format: in vivo, BALB/c line mice; settings: for Injury index: daily 6 times per week, four-score scale, liver, spleen and lungs; for Efficacy index (%): 100% - injury index of group / injury index of control x 100; for right lung Culture, without dilution CFU / spleen Culture, without dilution CFU: 42 days after inoculation of the culture medium
[6] = system: Mycobacterium tuberculosis clinical isolate 6374; format: cell-based
M. fortuitum B = settings: Mycolicibacterium fortuitum, read-out: MIC M.fortuitum

For `CC1COC2(CCN(c3nc(=O)c4cc(C(F)(F)F)cc([N+](=O)[O-])c4s3)CC2)O1` (centres unmarked) [Compound 2, 2-(2-methyl-1,4-dioxa-8-azaspiro[4.5]dec-8-yl)-8-nitro-6-(trifluoromethyl)-1,3-benzothiazin-4-one], the MBC [1] was 390 ng/mL (≈ 0.904 µM), the MIC [1] was 290 ng/mL (≈ 0.672 µM) and the “MIC M.vaccae” value (M. vaccae IMET 10 10670) was 0,76pg/ml. For the same compound, the MBC [2] was 0.45 µg/mL (≈ 1.04 µM), the MIC [2] was 0.29 µg/mL (≈ 0.672 µM) and the LD50 (in vivo) was > 2000 mg/kg. For the same compound, the toxicity ([3]; doses ranging up to 2000 mg/kg) was “non toxic”, the animal death ([3]; doses up to 2000 mg/kg, during 7 days of investigations) was “no cases of animal death” and the MIC [4] was 1.56 ng/mL (≈ 0.00362 µM). The Injury index ([5]; 12 mg/kg orally) was 2,1, the “Efficacy index (%)” value ([5]; 12 mg/kg orally) was 44,7% and the “right lung Culture, without dilution CFU” value ([5]; 12 mg/kg orally) was “∼ 60 CFU”. For the same compound, the “spleen Culture, without dilution CFU” value ([5]; 12 mg/kg orally) was “∼ 60 CFU”, the Injury index ([5]; 25 mg/kg orally) was 1,0 and the “Efficacy index (%)” value ([5]; 25 mg/kg orally) was 78%. For the same compound, the “right lung Culture, without dilution CFU” value ([5]; 25 mg/kg orally) was “∼ 35 CFU”, the “spleen Culture, without dilution CFU” value ([5]; 25 mg/kg orally) was “∼ 35 CFU” and the Survival of animals ([5]; Group 3, 12 mg/kg oral, day of treatment 1, of 10 animals) was 10. It also gave a Survival of animals ([5]; Group 3, 12 mg/kg oral, day of treatment 2, of 10 animals) of 10, a Survival of animals ([5]; Group 3, 12 mg/kg oral, day of treatment 3, of 10 animals) of 10 and a Survival of animals ([5]; Group 3, 12 mg/kg oral, day of treatment 4, of 10 animals) of 10. The Survival of animals ([5]; Group 3, 12 mg/kg oral, day of treatment 5, of 10 animals) was 10, the Survival of animals ([5]; Group 3, 12 mg/kg oral, day of treatment 6, of 10 animals) was 10 and the Survival of animals ([5]; Group 3, 12 mg/kg oral, day of treatment 7, of 10 animals) was 10. The Survival of animals ([5]; Group 3, 12 mg/kg oral, day of treatment 8, of 10 animals) was 10, the Survival of animals ([5]; Group 3, 12 mg/kg oral, day of treatment 9, of 10 animals) was 10 and the Survival of animals ([5]; Group 3, 12 mg/kg oral, day of treatment 10, of 10 animals) was 10. The Survival of animals ([5]; Group 3, 12 mg/kg oral, day of treatment 11, of 10 animals) was 10, the Survival of animals ([5]; Group 3, 12 mg/kg oral, day of treatment 12, of 10 animals) was 10 and the Survival of animals ([5]; Group 3, 12 mg/kg oral, day of treatment 13, of 10 animals) was 10. It also gave a Survival of animals ([5]; Group 3, 12 mg/kg oral, day of treatment 14, of 10 animals) of 10, a Survival of animals ([5]; Group 3, 12 mg/kg oral, day of treatment 15, of 10 animals) of 10 and a Survival of animals ([5]; Group 3, 12 mg/kg oral, day of treatment 16, of 10 animals) of 10. For the same compound, the Survival of animals ([5]; Group 3, 12 mg/kg oral, day of treatment 17, of 10 animals) was 10, the Survival of animals ([5]; Group 3, 12 mg/kg oral, day of treatment 18, of 10 animals) was 10 and the Survival of animals ([5]; Group 3, 12 mg/kg oral, day of treatment 19, of 10 animals) was 10. For the same compound, the Survival of animals ([5]; Group 3, 12 mg/kg oral, day of treatment 20, of 10 animals) was 10, the Survival of animals ([5]; Group 3, 12 mg/kg oral, day of treatment 21, of 10 animals) was 10 and the Survival of animals ([5]; Group 3, 12 mg/kg oral, day of treatment 22, of 10 animals) was 10. The Survival of animals ([5]; Group 3, 12 mg/kg oral, day of treatment 23, of 10 animals) was 10, the Survival of animals ([5]; Group 3, 12 mg/kg oral, day of treatment 24, of 10 animals) was 10 and the Survival of animals ([5]; Group 3, 12 mg/kg oral, day of treatment 25, of 10 animals) was 10. The Survival of animals ([5]; Group 3, 12 mg/kg oral, day of treatment 26, of 10 animals) was 10, the Survival of animals ([5]; Group 3, 12 mg/kg oral, day of treatment 27) was 100% and the Survival of animals ([5]; Groups 4/5, 25 mg/kg oral, day of treatment 1, of 10 animals) was 10. For the same compound, the Survival of animals ([5]; Groups 4/5, 25 mg/kg oral, day of treatment 2, of 10 animals) was 10, the Survival of animals ([5]; Groups 4/5, 25 mg/kg oral, day of treatment 3, of 10 animals) was 10 and the Survival of animals ([5]; Groups 4/5, 25 mg/kg oral, day of treatment 4, of 10 animals) was 10. For the same compound, the Survival of animals ([5]; Groups 4/5, 25 mg/kg oral, day of treatment 5, of 10 animals) was 10, the Survival of animals ([5]; Groups 4/5, 25 mg/kg oral, day of treatment 6, of 10 animals) was 10 and the Survival of animals ([5]; Groups 4/5, 25 mg/kg oral, day of treatment 7, of 10 animals) was 10. It also gave a Survival of animals ([5]; Groups 4/5, 25 mg/kg oral, day of treatment 8, of 10 animals) of 10, a Survival of animals ([5]; Groups 4/5, 25 mg/kg oral, day of treatment 9, of 10 animals) of 10 and a Survival of animals ([5]; Groups 4/5, 25 mg/kg oral, day of treatment 10, of 10 animals) of 10. For the same compound, the Survival of animals ([5]; Groups 4/5, 25 mg/kg oral, day of treatment 11, of 10 animals) was 10, the Survival of animals ([5]; Groups 4/5, 25 mg/kg oral, day of treatment 12, of 10 animals) was 10 and the Survival of animals ([5]; Groups 4/5, 25 mg/kg oral, day of treatment 13, of 10 animals) was 10. The Survival of animals ([5]; Groups 4/5, 25 mg/kg oral, day of treatment 14, of 10 animals) was 10, the Survival of animals ([5]; Groups 4/5, 25 mg/kg oral, day of treatment 15, of 10 animals) was 10 and the Survival of animals ([5]; Groups 4/5, 25 mg/kg oral, day of treatment 16, of 10 animals) was 10. It also gave a Survival of animals ([5]; Groups 4/5, 25 mg/kg oral, day of treatment 17, of 10 animals) of 10, a Survival of animals ([5]; Groups 4/5, 25 mg/kg oral, day of treatment 18, of 10 animals) of 10 and a Survival of animals ([5]; Groups 4/5, 25 mg/kg oral, day of treatment 19, of 10 animals) of 10. The Survival of animals ([5]; Groups 4/5, 25 mg/kg oral, day of treatment 20, of 10 animals) was 10, the Survival of animals ([5]; Groups 4/5, 25 mg/kg oral, day of treatment 21, of 10 animals) was 10 and the Survival of animals ([5]; Groups 4/5, 25 mg/kg oral, day of treatment 22, of 10 animals) was 10. For the same compound, the Survival of animals ([5]; Groups 4/5, 25 mg/kg oral, day of treatment 23, of 10 animals) was 10, the Survival of animals ([5]; Groups 4/5, 25 mg/kg oral, day of treatment 24, of 10 animals) was 10 and the Survival of animals ([5]; Groups 4/5, 25 mg/kg oral, day of treatment 25, of 10 animals) was 10. It also gave a Survival of animals ([5]; Groups 4/5, 25 mg/kg oral, day of treatment 26, of 10 animals) of 10, a Survival of animals ([5]; Groups 4/5, 25 mg/kg oral, day of treatment 27) of 100% and a mice survived ([5]; murine model of tuberculosis infection, all control animals died until day 33) of 100%. It also gave an MBC [6] of 390 ng/mL (≈ 0.904 µM) and an MIC [6] of 195 ng/mL (≈ 0.452 µM).
For `CC1OC2(CCN(c3nc(=O)c4cc(C(F)(F)F)cc([N+](=O)[O-])c4s3)CC2)OC1C` (centres unmarked) [Compound 5, 2-(2,3-dimethyl-1,4-dioxa-8-azaspiro[4.5]dec-8-yl)-8-nitro-6-(trifluoromethyl)-1,3-benzothiazin-4-one], the MBC [1] was 390 ng/mL (≈ 0.876 µM), the MIC [1] was < 390 ng/mL and the MIC (M. vaccae IMET 10 10670) was 0.078 ng/mL (≈ 0.000175 µM). It also gave an MBC [2] of 0.45 µg/mL (≈ 1.01 µM), an MIC [2] of 0.39 µg/mL (≈ 0.876 µM) and an MIC (M. fortuitum B) of 0.078 ng/mL (≈ 0.000175 µM). The MIC [4] was 6.25 ng/mL (≈ 0.014 µM), the MBC [6] was 390 ng/mL (≈ 0.876 µM) and the MIC [6] was < 390 ng/mL.
For `N#Cc1cc([N+](=O)[O-])c2sc(N3CCC4(CC3)OCCO4)nc(=O)c2c1` [Compound 9, 2-(1,4-dioxa-8-azaspiro[4.5]dec-8-yl)-8-nitro-4-oxo-1,3-benzothiazine-6-carbonitrile], the MBC [1] was 1170 ng/mL (≈ 3.13 µM), the MIC [1] was 780 ng/mL (≈ 2.08 µM) and the MIC (M. vaccae IMET 10 10670) was 3.12 ng/mL (≈ 0.00833 µM). For the same compound, the MBC [2] was 0.75 µg/mL (≈ 2 µM), the MIC [2] was 0.52 µg/mL (≈ 1.39 µM) and the MIC (M. fortuitum B) was 25 ng/mL (≈ 0.0668 µM). The MIC [4] was 50 ng/mL (≈ 0.134 µM), the MBC [6] was 780 ng/mL (≈ 2.08 µM) and the MIC [6] was 580 ng/mL (≈ 1.55 µM).
Work on `CC1COC2(CCN(c3nc(=O)c4cc(C#N)cc([N+](=O)[O-])c4s3)CC2)O1` (centres unmarked) [Compound 10, 2-(2-methyl-1,4-dioxa-8-azaspiro[4.5]dec-8-yl)-8-nitro-4-oxo-1,3-benzothiazine-6-carbonitrile] yielded an MBC [1] of 780 ng/mL (≈ 2.01 µM), an MIC [1] of 580 ng/mL (≈ 1.49 µM) and an MIC (M. vaccae IMET 10 10670) of 3.12 ng/mL (≈ 0.00803 µM). The MBC [2] was 0.71 µg/mL (≈ 1.83 µM), the MIC [2] was 0.45 µg/mL (≈ 1.16 µM) and the MIC (M. fortuitum B) was 12.5 ng/mL (≈ 0.0322 µM). The MIC [4] was 25 ng/mL (≈ 0.0644 µM), the MBC [6] was 780 ng/mL (≈ 2.01 µM) and the MIC [6] was 390 ng/mL (≈ 1 µM).
